Experimental data reported in patent publication US20110177964A1, “CHEMOSENSORY ARRAYS” (THE TRUSTEES OF PRINCETON UNIVERSITY, priority 2009, published 2011).
Positions count from the first letter of the chain named.

Assays:
[1] = target: T1, 2211 receptor (Homo sapiens, UniProt Q15391, A193V/A252V/A98G/F243I/K54E); assay: Yeast growth plate assay (FUS1-HIS3 reporter) on selective media containing ligand; format: cell-based; details: 2211 (parent) receptor, selective plates with ligand
T1 construct: expressed in transfected cells; host or cells: Saccharomyces yeast; strain CY10981 with FUS1-LacZ plasmid for β-galactosidase assays, strain CY10560 (FUS1-HIS3) for growth selection
T1 sequence (Q15391 with tags, fused parts or gaps K54E/A98G/A193V/F243I/A252V): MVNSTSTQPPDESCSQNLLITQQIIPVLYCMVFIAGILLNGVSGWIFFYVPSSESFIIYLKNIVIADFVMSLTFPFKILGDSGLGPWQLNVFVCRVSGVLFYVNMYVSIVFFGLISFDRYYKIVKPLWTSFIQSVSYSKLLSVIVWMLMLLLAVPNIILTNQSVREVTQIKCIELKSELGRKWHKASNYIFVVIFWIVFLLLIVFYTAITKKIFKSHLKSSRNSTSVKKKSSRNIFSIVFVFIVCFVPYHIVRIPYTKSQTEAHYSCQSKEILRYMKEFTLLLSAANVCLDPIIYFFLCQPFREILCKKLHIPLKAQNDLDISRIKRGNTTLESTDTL
Text: Mutagenesis and selection of sensitized receptor mutants: The entire UDPG receptor gene was mutagenized via errorprone mutagenesis to an estimated frequency of −2-5 mutations/kb following the Mutazyme protocol. […] A total of (1-2)×10^5 colonies were screened by replica plating to SC-His medium (Kaiser, C., Michaelis, S, and Mitchell, A. (1994) Methods in Yeast Genetics: A Cold Spring Harbor Laboratory Course Manual. Cold Spring Harbor Laboratory Press, Cold Spring Harbor, N.Y., which is incorporated herein by reference as if fully set forth) with or without ligand. Yeast growth media was supplemented by 1 mM 3AT, a competitive inhibitor of the HIS3 reporter gene product, which sets the threshold for reporter gene activation.
Cells were transformed with a plasmid library carrying the randomly mutated human UDPG receptor gene.
The 20 receptors isolated in this primary screen were subsequently retested for growth in the presence of lower concentrations of each ligand, to ascertain whether the receptor had significant changes in ligand preference. […] To determine whether the receptors that lacked appreciable changes in ligand specificity were indeed mutants and to verify the complexity of the mutant library, the DNA encoding each receptor was sequenced.

[2] = target: T2, H-20 (R1) receptor (Homo sapiens, UniProt Q15391, A193V/A252V/A98G/F243I/I251T/K54E/R253K); assay: Yeast FUS1-lacZ β-galactosidase reporter assay, single receptor-single ligand calibration curves fitted by Bayesian nested sampling; format: cell-based; details: for ΔG (receptor-ligand binding free energy): H-20 (R1) expressed in yeast, average ± s.d. from posterior; for A (receptor efficacy): H-20 (R1), 1 = full agonist, 0 = full antagonist
T2 construct: expressed in transfected cells; host or cells: Saccharomyces yeast; strain CY10981 with FUS1-LacZ plasmid for β-galactosidase assays, strain CY10560 (FUS1-HIS3) for growth selection
T2 sequence (Q15391 with tags, fused parts or gaps K54E/A98G/A193V/F243I/I251T/A252V/R253K): T1 sequence (Q15391 with tags, fused parts or gaps K54E/A98G/A193V/F243I/A252V) with I251T, R253K
Text: (§1) To assess receptor ligand interactions quantitatively in the chemosensor array, the receptors were functionally expressed in yeast. To do so, the yeast pheromone receptor was replaced with one of the sensor GPCRs in strains in which the pheromone response pathway was modified to respond to the heterologous receptor by inducing transcription of the E. coli lacZ gene. See the example section below. In this fashion, the extent of GPCR activation following ligand addition could be monitored as the level of β-galactosidase produced in the cell, which was measured using a fluorescence-based assay. See the example section below.
(§2) Receptor responses to binding of a single ligand. It was assumed that the observed signal in the receptor-bearing reporter strain is proportional to the probability that the receptor is bound by the ligand. This proportionality value, A, which is referred to as the receptor efficacy, can range from 1, for a full agonist, to 0, for a full antagonist, with intermediate values indicating partial agonist activity. In the simplest case of a single receptor interacting with a single ligand, the amount of activation of the reporter in the receptor bearing strain is given by:
(§3) where A is the receptor efficacy, ΔG is the receptor-ligand binding free energy, b is the background intensity, β=1/kBT (kB is the Boltzmann constant, and T is the temperature), and μ^l=kBT log n^l, which is the chemical potential, where n^l is the ligand concentration. In the example of fluorescing products, I can be measured by a fluorescent assay, but the intensity of any report may be utilized. […] In this example, the four receptors are R1: H-20, R2: K-3, and R3: L-3, R4: 2211. See the example section below for details regarding these receptors. […] For each curve, intensity normalized by the maximum intensity on the plate is plotted against log10 n (n is the ligand concentration in M). The error bars on each curve are from four biological replicates. The single receptor-single ligand binding curves can be used to calibrate the biophysical model (Eq. (1)) by inferring ΔG, A and b for each receptor-ligand combination and knowledge of μ^l. Specifically, Bayesian inference is applied. Referring to FIG. 4, the posterior probability P(ΔG, A, b, σ|{Ĩ}) is found by nested sampling (see below), where Ĩ=(l=1 . . . N) is the lth fluorescent and a is the noise parameter. […] This step provides calibration by returning the most likely value of ΔG, A and b for each receptor-ligand pair, as well as a value σ, which represents the noise in the response. The average value of each parameter obtained by marginalization of the posterior probability can be subsequently used for analysis of a mixture of compounds.
(§4) In this example, yeast cultures expressing each of the four mutant receptors (2211, H-20, K-3 and L-3) were grown overnight and diluted to OD600 of […] in flasks. Cultures were then grown to an OD600 of 0.1-0.2 and 80 μl of culture was aliquotted into deep-well 384 well plates along with 20 μL of ligand. Cultures in the 384 well plates were incubated with vigorous mixing for 4 hours (H-20, K-3, L-3) or overnight (2211). 50 μL of each sample was transferred to a black 384 well plate containing 25 μL fluorescein/lysis solution (as described in Chambers J, et al.). Fluorescence was read on a PerkinElmer fluorescent plate reader.

[3] = target: T3, K-3 (R2) receptor (Homo sapiens, UniProt Q15391, A193V/A252V/A98G/E278G/F243I/K54E); assay: as above; format: cell-based; details: for ΔG (receptor-ligand binding free energy): K-3 (R2) expressed in yeast, average ± s.d. from posterior; for A (receptor efficacy): K-3 (R2), 1 = full agonist, 0 = full antagonist
T3 construct: expressed in transfected cells; host or cells: Saccharomyces yeast; strain CY10981 with FUS1-LacZ plasmid for β-galactosidase assays, strain CY10560 (FUS1-HIS3) for growth selection
T3 sequence (Q15391 with tags, fused parts or gaps K54E/A98G/A193V/F243I/A252V/E278G): T1 sequence (Q15391 with tags, fused parts or gaps K54E/A98G/A193V/F243I/A252V) with E278G
Text: as §1, §2, §3, §4

[4] = target: T4, L-3 (R3) receptor (Homo sapiens, UniProt Q15391, A193V/A252V/A285S/A98G/F243I/K54E/L281V/L282F); assay: as above; format: cell-based; details: for ΔG (receptor-ligand binding free energy): L-3 (R3) expressed in yeast, average ± s.d. from posterior; for A (receptor efficacy): L-3 (R3), 1 = full agonist, 0 = full antagonist
T4 construct: expressed in transfected cells; host or cells: Saccharomyces yeast; strain CY10981 with FUS1-LacZ plasmid for β-galactosidase assays
T4 sequence (Q15391 with tags, fused parts or gaps K54E/A98G/A193V/F243I/A252V/L281V/L282F/A285S): T1 sequence (Q15391 with tags, fused parts or gaps K54E/A98G/A193V/F243I/A252V) with L281V, L282F, A285S
Text: as §1, §2, §3, §4

[5] = target: T5, 2211 (R4) receptor (Homo sapiens, UniProt Q15391, A193V/A252V/A98G/F243I/K54E); assay: as above; format: cell-based, yeast expressing yeast expressing yeast expressing yeast expressing human receptor receptor receptor receptor; details: for ΔG (receptor-ligand binding free energy): 2211 (R4) expressed in yeast, average ± s.d. from posterior; for A (receptor efficacy): 2211 (R4), 1 = full agonist, 0 = full antagonist
T5 construct: expressed in transfected cells; host or cells: Saccharomyces yeast; strain CY10981 with FUS1-LacZ plasmid for β-galactosidase assays, strain CY10560 (FUS1-HIS3) for growth selection
T5 sequence (Q15391 with tags, fused parts or gaps K54E/A98G/A193V/F243I/A252V): T1 sequence (Q15391 with tags, fused parts or gaps K54E/A98G/A193V/F243I/A252V)
Text: as §1, §2, §3, §4

[6] = target: T6, K-3 mutant receptor (Homo sapiens, UniProt Q15391, A193V/A252V/A98G/E278G/F243I/K54E); assay: Yeast growth plate assay (FUS1-HIS3 reporter) on selective media containing ligand; format: cell-based; details: K-3 mutant relative to its parent H-20
T6 construct: expressed in transfected cells; host or cells: Saccharomyces yeast; strain CY10981 with FUS1-LacZ plasmid for β-galactosidase assays, strain CY10560 (FUS1-HIS3) for growth selection
T6 sequence (Q15391 with tags, fused parts or gaps K54E/A98G/A193V/F243I/A252V/E278G): T1 sequence (Q15391 with tags, fused parts or gaps K54E/A98G/A193V/F243I/A252V) with E278G
Text: The ‘HIAR’ motif in transmembrane domain 6 was targeted. […] Libraries containing the randomized HIAR motif were constructed in vivo by cotransforming strain CY10560 cells with three DNA fragments: a 2211 receptor plasmid cut to remove the HIAR domain and a pair of PCR products synthesized with oligonucleotides randomized over the HIAR region and 50 and 30 extensions overlapping both sides of the gap in the plasmid. […] The 20 receptors isolated in this primary screen were subsequently retested for growth in the presence of lower concentrations of each ligand, to ascertain whether the receptor had significant changes in ligand preference. […] To determine whether the receptors that lacked appreciable changes in ligand specificity were indeed mutants and to verify the complexity of the mutant library, the DNA encoding each receptor was sequenced.
H-20 was selected as the template for mutagenesis of three additional motifs, ‘AxxFY’ and ‘NMY’ in TM3 and ‘KExT’ in TM7. These mutants were tested in the same manner as the HIAR mutants, focusing only on mutants with clear changes in relative growth on one or more ligands.

SMILES | receptor response to ligand (yeast growth) [1] | ΔG (receptor-ligand binding free energy) [2] | A (receptor efficacy) [2] | agonist/antagonist character ([2]; H-20, small A, large negative ΔG) | ΔG (receptor-ligand binding free energy) [3] | A (receptor efficacy) [3] | agonist/antagonist character ([3]; K-3, small A, large negative ΔG) | ΔG (receptor-ligand binding free energy) [4] | A (receptor efficacy) [4] | agonist/antagonist character ([4]; L-3, small A, large negative ΔG) | ΔG (receptor-ligand binding free energy) [5] | A (receptor efficacy) [5] | agonist/antagonist character ([5]; 2211, small A, large negative ΔG) | yeast growth in response to ligand [6]
CC(=O)N[C@H]1[C@@H](OP(=O)(O)OP(=O)(O)OC[C@H]2O[C@@H](n3ccc(=O)[nH]c3=O)[C@H](O)[C@@H]2O)O[C@H](CO)[C@H](O)[C@@H]1O [UDP-GalNAc, UDP-N-acetylgaltactosamine] | responds |  |  |  |  |  |  |  |  |  |  |  |  | 
O=c1ccn([C@@H]2O[C@H](COP(=O)(O)OP(=O)(O)O)[C@@H](O)[C@H]2O)c(=O)[nH]1 [UDP, uridine diphosphate] | do not activate | -7.42 ± .05 kcal/mol | .008 ± .009 | antagonist | -8.2 ± .2 kcal/mol | .18 ± .01 | antagonist | -7.4 ± .1 kcal/mol | .02 ± .02 | antagonist | -10.3 ± .3 kcal/mol | .010 ± .009 | antagonist | grew
Cc1cn([C@H]2C[C@H](O)[C@@H](COP(=O)(O)OP(=O)(O)O[C@H]3O[C@H](CO)[C@@H](O)[C@H](O)[C@H]3O)O2)c(=O)[nH]c1=O [dTDP-glucose] | do not activate |  |  |  |  |  |  |  |  |  |  |  |  | 
CC(=O)N[C@H]1[C@@H](OP(=O)(O)OP(=O)(O)OC[C@H]2O[C@@H](n3ccc(=O)[nH]c3=O)[C@H](O)[C@@H]2O)O[C@H](CO)[C@@H](O)[C@@H]1O [UDP-GlcNAc, UDP-N-acetylglucosamine] | responds | -6.16 ± .06 kcal/mol | .51 ± .01 |  | -5.36 ± .06 kcal/mol | .55 ± .01 |  | -5.60 ± .06 kcal/mol | .43 ± .01 |  | -8.00 ± .09 kcal/mol | .89 ± .04 |  | 
